# ChEMBL document CHEMBL3045156, “Synthesis and fungicidal evaluation of 2-arylphenyl ether-3-(1H-1,2,4-triazol-1-yl)propan-2-ol derivatives” (2009)
# Columns and labels:
# Assay type in all cases: functional
# Details in all cases: read-out: GI
# [1] = system: Fusarium oxysporum; assay: Fungicidal activity against Fusarium oxysporum assessed as growth inhibition at 50 ug/mL
# [2] = system: Botryosphaeria berengeriana; assay: Fungicidal activity against Botryosphaeria berengeriana assessed as growth inhibition at 50 ug/mL
# [3] = system: Mycosphaerella arachidis; assay: Fungicidal activity against Mycosphaerella arachidis assessed as growth inhibition at 50 ug/mL
# [4] = system: Alternaria solani; assay: Fungicidal activity against Alternaria solani assessed as growth inhibition at 50 ug/mL
# [5] = system: Fusarium graminearum; assay: Fungicidal activity against Fusarium graminearum assessed as growth inhibition at 50 ug/mL
# [6] = system: Fusarium oxysporum; assay: Fungicidal activity against Fusarium oxysporum assessed as growth inhibition at 1 ug/mL
# [7] = system: Botryosphaeria berengeriana; assay: Fungicidal activity against Botryosphaeria berengeriana assessed as growth inhibition at 1 ug/mL
# [8] = system: Mycosphaerella arachidis; assay: Fungicidal activity against Mycosphaerella arachidis assessed as growth inhibition at 1 ug/mL
# [9] = system: Alternaria solani; assay: Fungicidal activity against Alternaria solani assessed as growth inhibition at 1 ug/mL
# [10] = system: Fusarium graminearum; assay: Fungicidal activity against Fusarium graminearum assessed as growth inhibition at 1 ug/mL
# [11] = system: Fusarium oxysporum; assay: Fungicidal activity against Fusarium oxysporum assessed as growth inhibition at 5 ug/mL
# [12] = system: Botryosphaeria berengeriana; assay: Fungicidal activity against Botryosphaeria berengeriana assessed as growth inhibition at 5 ug/mL
# [13] = system: Alternaria solani; assay: Fungicidal activity against Alternaria solani assessed as growth inhibition at 5 ug/mL
# [14] = system: Fusarium graminearum; assay: Fungicidal activity against Fusarium graminearum assessed as growth inhibition at 5 ug/mL
# [15] = system: Mycosphaerella arachidis; assay: Fungicidal activity against Mycosphaerella arachidis assessed as growth inhibition at 5 ug/mL
SMILES,inhibition of growth at 50 µg/mL [1] [%],inhibition of growth at 50 µg/mL [2] [%],inhibition of growth at 50 µg/mL [3] [%],inhibition of growth at 50 µg/mL [4] [%],inhibition of growth at 50 µg/mL [5] [%],inhibition of growth at 1 µg/mL [6] [%],inhibition of growth at 1 µg/mL [7] [%],inhibition of growth at 1 µg/mL [8] [%],inhibition of growth at 1 µg/mL [9] [%],inhibition of growth at 1 µg/mL [10] [%],inhibition of growth at 5 µg/mL [11] [%],inhibition of growth at 5 µg/mL [12] [%],inhibition of growth at 5 µg/mL [13] [%],inhibition of growth at 5 µg/mL [14] [%],inhibition of growth at 5 µg/mL [15] [%]
CCNCC(O)(Cn1cncn1)c1ccc(Oc2ccc(Cl)cc2)cc1Cl (stereo not given),86.9,75.4,61.4,63.8,56.8,–,–,–,–,–,–,–,–,–,–
CNCC(O)(Cn1cncn1)c1ccc(Oc2ccc(Cl)cc2)cc1Cl (stereo not given),100,100,99,99,98,0,96,57.2,50.3,72.5,–,–,–,–,–
COCC(O)(Cn1cncn1)c1ccc(Oc2ccc(Cl)cc2)cc1Cl (stereo not given),100,100,99.1,100,98.7,89.9,99.2,78.6,98.7,63.2,–,–,–,–,–
OC(CNC1CCCCC1)(Cn1cncn1)c1ccc(Oc2ccc(Cl)cc2)cc1Cl (stereo not given),78.9,100,75.2,87.3,47.5,–,–,–,–,–,–,–,–,–,–
CSCC(O)(Cn1cncn1)c1ccc(Oc2ccc(Cl)cc2)cc1Cl (stereo not given),78.9,100,82.4,83.7,37.2,–,–,–,–,–,–,–,–,–,–
OCCNCC(O)(Cn1cncn1)c1ccc(Oc2ccc(Cl)cc2)cc1Cl (stereo not given),100,97.7,72.2,98.5,37.3,–,–,–,–,–,–,–,–,–,–
CONCC(O)(Cn1cncn1)c1ccc(Oc2ccc(Cl)cc2)cc1Cl (stereo not given),100,100,98.4,100,97.3,0,84.2,55.3,61.3,18.2,–,–,–,–,–
COCC(O)(Cn1cncn1)c1ccc(Oc2ccc(F)cc2)cc1Cl (stereo not given),100,100,100,100,100,82.7,89.5,76.2,96.9,57.2,–,–,–,–,–
CNCC(O)(Cn1cncn1)c1ccc(Oc2ccc(F)cc2)cc1Cl (stereo not given),100,100,100,100,100,68.7,74.6,72.1,86.7,67.2,–,–,–,–,–
OC(Cn1ccnc1)(Cn1cncn1)c1ccc(Oc2ccc(F)cc2)cc1Cl (stereo not given),57.1,87.9,100,73.2,84.3,–,–,–,–,–,–,–,–,–,–
OC(Cn1cncn1)(Cn1cncn1)c1ccc(Oc2ccc(F)cc2)cc1Cl,100,95.9,100,97.5,95,90,49.3,39.5,75,21.8,–,–,–,–,–
CC(O)(Cn1cncn1)c1ccc(Oc2ccc(Cl)cc2)cc1Cl (stereo not given),85.3,100,100,78.2,100,–,–,–,–,–,–,–,–,–,–
CC(O)(Cn1cncn1)c1ccc(Oc2ccc(F)cc2)cc1Cl (stereo not given),99,100,99,100,98,17.9,48.7,37.5,20,0,–,–,–,–,–
OC(/C=C/c1ccccc1)(Cn1cncn1)c1ccc(Oc2ccc(Cl)cc2)cc1Cl (stereo not given),68.7,67.9,100,81.2,64.3,–,–,–,–,–,–,–,–,–,–
OC(/C=C/c1ccc(Cl)cc1)(Cn1cncn1)c1ccc(Oc2ccc(Cl)cc2)cc1Cl (stereo not given),57.1,64.1,95,76.8,77.2,–,–,–,–,–,–,–,–,–,–
OC(/C=C/c1ccc(Cl)cc1Cl)(Cn1cncn1)c1ccc(Oc2ccc(Cl)cc2)cc1Cl (stereo not given),50.9,58.7,97.8,54.4,37.2,–,–,–,–,–,–,–,–,–,–
OC(/C=C/c1c(Cl)cccc1Cl)(Cn1cncn1)c1ccc(Oc2ccc(Cl)cc2)cc1Cl (stereo not given),51.8,79.3,92.4,60.7,50.3,–,–,–,–,–,–,–,–,–,–
Cc1ccc(/C=C/C(O)(Cn2cncn2)c2ccc(Oc3ccc(Cl)cc3)cc2Cl)cc1 (stereo not given),60.2,59.3,95,63.2,51.8,–,–,–,–,–,–,–,–,–,–
COc1ccc(/C=C/C(O)(Cn2cncn2)c2ccc(Oc3ccc(Cl)cc3)cc2Cl)cc1 (stereo not given),55.4,64.5,91.3,55,61.4,–,–,–,–,–,–,–,–,–,–
OC(/C=C/c1ccc(Cl)c(Cl)c1)(Cn1cncn1)c1ccc(Oc2ccc(Cl)cc2)cc1Cl (stereo not given),57.1,64.6,100,66.7,53.6,–,–,–,–,–,–,–,–,–,–
OC(/C=C/c1ccccc1F)(Cn1cncn1)c1ccc(Oc2ccc(Cl)cc2)cc1Cl (stereo not given),65.9,52.1,99.3,55,61.4,–,–,–,–,–,–,–,–,–,–
OC(Cn1cncn1)(Cn1cncn1)c1ccc(Oc2ccc(Cl)cc2)cc1Cl,99,100,100,99,100,62.5,90.3,88.1,58.6,82.6,80.9,91,84.2,100,100
OC(Cn1ccnc1)(Cn1cncn1)c1ccc(Oc2ccc(Cl)cc2)cc1Cl (stereo not given),95,99,100,99,71.4,–,–,–,–,–,–,–,–,–,–
OC(CN1CCOCC1)(Cn1cncn1)c1ccc(Oc2ccc(Cl)cc2)cc1Cl (stereo not given),34.4,65.2,60,55.2,78.3,–,–,–,–,–,–,–,–,–,–
OC(Cn1cncn1)(Cn1nnc2ccccc21)c1ccc(Oc2ccc(Cl)cc2)cc1Cl (stereo not given),48.7,55.6,62.7,53.3,45.4,–,–,–,–,–,–,–,–,–,–
OCC(O)(Cn1cncn1)c1ccc(Oc2ccc(Cl)cc2)cc1Cl (stereo not given),77.1,99,100,99,99,–,–,–,–,–,–,–,–,–,–
CN(C)CC(O)(Cn1cncn1)c1ccc(Oc2ccc(Cl)cc2)cc1Cl (stereo not given),100,100,97.2,99.1,96.9,0,27.7,0,18.6,4.2,–,–,–,–,–
CC1COC(Cn2cncn2)(c2ccc(Oc3ccc(Cl)cc3)cc2Cl)O1 (stereo not given) [DIFENOCONAZOLE],99.9,100,100,99.2,100,53.1,69.7,56.7,95,73.9,–,–,–,–,–
CC(C)(C)C(O)(CCc1ccc(Cl)cc1)Cn1cncn1 (stereo not given) [TEBUCONAZOLE],100,100,100,100,100,65.6,68.2,91,65.5,86.9,–,–,–,–,–
